“Also recorded” adds a separate entry of the source.
Experiments:
SMA iPSC motor neurons [1] = assay: iPSC motor neuron degeneration measured by choline acetyltransferase (ChAT) staining; type: cell-based, human; conditions: 10 μM
Method: (§1) Calpeptin (10 μM) (A) was used to inhibit calpain activity, and 300 nM BML259 (B) was used to inhibit Cdk5 activity in control and SMA iPSC motor neurons. Data are from four independent experiments and are mean±SEM. ** p<0.01, *** p<0.001, Student's t test. […] Levels of different mRNA in each sample are calculated as relative to gapdh mRNA. The level of gapdh mRNA is presented as relative to the average of four samples. The measurement of each sample was repeated three times and four sets of mice were used. Results are mean±SEM. ** p<0.01, Student's t test.
(§2) Human SMA iPSC and Mouse Motor Neuron Culture. Human iPSCs were generated and differentiated as described in the Examples. Briefly, primary fibroblasts were isolated from de-identified type I SMA patients and their unaffected relatives, infected with lentiviral constructs expressing OCT4, SOX2, NANOG, and LIN28 or episomally expressed reprogramming plasmids to generate iPSCs. Retinoic acid, sonic hedgehog, cAMP, ascorbic acid, brain-derived neurotrophic factor (BDNF) and glial cell line-derived neurotrophic factor (GDNF) were used to induce iPSC spheres to differentiate into motor neurons. […] Cell death was detected by the in situ cell death detection TMR red TUNEL (Terminal Transferase dUTP Nick End Labeling) kit. […]

[2] = test system: human SMA iPSC-derived motor neurons; assay: Degeneration of human SMA iPSC-derived motor neurons (TuJ1 and Isl1-positive motor neurons as percentage of DAPI positive cells); type: cell-based; conditions: week 3 to week 6 in culture
Excerpt: FIGS. 8A-8M: Inhibition of Cdk5 signaling pathway decreases the degeneration of human SMA iPSC-derived motor neurons. (A-L) Immunostaining of human iPSC-derived motor neurons with antibodies recognizing neuronal marker TuJ1 (green in A-L), motor neuron marker Isl1 (red in A-L), and nucleus marker DAPI (blue in A-L). […] (M) Quantification of TuJ1 and Isl1-positive motor neurons as a percentage of all DAPI positive cells in a human iPSC model of SMA treated with inhibitors of Cdk5 signaling. […] Data are from four independent experiments and are mean±SEM. ** P<0.01, *** p<0.001, **** P<0.0001, Student's t test.
as §2

[3] = test system: SMA non-integrating iPSC-derived motor neurons; assay: Motor neuron degeneration in non-integrating iPSC SMA model (Isl1+ and TuJ1+ motor neurons as percentage of DAPI-positive cells); type: cell-based, human; conditions: 10 μM
Excerpt: FIGS. 9A-C: (A) The increase of Cdk5 kinase activity in E18.5 SMA mouse spinal cord is not significant. Endogenous Cdk5 was immunoprecipitated from spinal cord lysates of E18.5 WT and SMA mice and measured kinase activity of phosphorylating Histone H1 with ^32P-γ-ATP. The same levels of Cdk5 and purified Histone H1 used in kinase assay reactions were monitored by Western blotting. Data are mean±SEM, Student's t test (n=12, P=0.0875). […] Endogenous Cdk5 was immunoprecipitated from motor neurons differentiated from WT and SMA non-integrating iPSCs. Kinase activities were quantified by the phosphorylation of Histone H1 with ^32P-γ-ATP. The same levels of Cdk5 and Histone H1 were monitored by Western blot. Data are mean±SEM, Student's t test (n=12, P<0.0001). […] Calpain inhibitor Calpeptin (10 μM) was applied to WT and SMA non-integrating iPSC-derived motor neurons. The number of Isl1+ and TuJ1+motor neurons as a percentage of all DAPI-positive cells was quantified from 1490 motor neurons in four independent experiments and are mean±SEM. ** p=0.0045, Student's t test.
Human SMA iPSC and Mouse Motor Neuron Culture. Human iPSCs were generated and differentiated as described in the Examples. […] Cell death was detected by the in situ cell death detection TMR red TUNEL (Terminal Transferase dUTP Nick End Labeling) kit. […]

SMA motor neuron = assay: Dosage effect of BML259 on primary mouse motor neurons: toxic effect (cell morphology and viability, bright field microscope); type: cell-based; conditions: two days
Excerpt: (§3) Human SMA iPSC and Mouse Motor Neuron Culture. Human iPSCs were generated and differentiated as described in the Examples. Briefly, primary fibroblasts were isolated from de-identified type I SMA patients and their unaffected relatives, infected with lentiviral constructs expressing OCT4, SOX2, NANOG, and LIN28 or episomally expressed reprogramming plasmids to generate iPSCs. Retinoic acid, sonic hedgehog, cAMP, ascorbic acid, brain-derived neurotrophic factor (BDNF) and glial cell line-derived neurotrophic factor (GDNF) were used to induce iPSC spheres to differentiate into motor neurons. Primary neurons from mouse spinal cords were cultured in Neurobasal (Life Technologies) supplemented with B27 (Life Technologies) as described. Briefly, spinal cords from E12.5 mouse embryos were dissected out and dissociated with 0.25% trypsin. After enriching motor neurons with Optiprep density gradient centrifugation and BSA cushion, cells were seeded on glass cover slips coated with 20 μg/ml Poly-L-Lysine (PLL) (Sigma) and 8 μg/ml Laminin (Sigma), and grown in the presence of […] (PeproTech). Cell death was detected by the in situ cell death detection TMR red TUNEL (Terminal Transferase dUTP Nick End Labeling) kit. Cdk5 inhibitor BML259 (300 nM) (Cayman Chemical) and calpain inhibitor Calpeptin (10 μM) (Tocris Bioscience) were applied from week 3 to 6 into iPSC motor neuron medium to inhibit Cdk5 signaling.
(§4) Different concentrations of Cdk5 inhibitor BML259 were applied on primary motor neurons from wild type and SMA mice. After two days, treated and untreated cells were compared to identify potential toxic effects of causing additional cell death by checking cell morphology and viability using a bright field microscope.

WT motor neuron = assay: as above; type: cell-based; conditions: two days
Excerpt: as §3, §4

SMA motor neurons = assay: TUNEL staining of degenerating primary spinal motor neurons cultured from Δ7 SMA mice; type: cell-based, mouse; conditions: 300 nM applied at 3 DIV, assayed on 6 DIV
Excerpt: FIGS. 4A-4D: Mitigating aberrant Cdk5 activation ameliorates the degeneration of motor neurons from SMA mice. (A-B) Primary spinal motor neurons from SMA mice cultured 6 days in vitro (6 DIV) were stained by antibodies recognizing motor neuron marker Isl1 (magenta in A, B) and pan-neuronal marker TuJ1 (green in A). DAPI nuclear staining marks all cells in the culture. (C) Western blot analysis of Cdk5 knockdown in motor neurons treated with shRNA. […] Motor neurons were infected with lentivirus on 4 DIV and cultured for another 3 days before Western blot analysis. Two examples of Cdk5 shRNA knockdown were shown, with the expression of GAPDH as loading control. (D) Quantification of TUNEL+ degenerating motor neurons from WT and SMA mice. […]
Human SMA iPSC and Mouse Motor Neuron Culture. […] Cell death was detected by the in situ cell death detection TMR red TUNEL (Terminal Transferase dUTP Nick End Labeling) kit. […]
Mitigating Aberrant Cdk5 Activation Reduces the Degeneration of SMA Mouse Motor Neurons. Experiments were conducted during development of embodiments herein to determine whether reducing aberrant Cdk5 activation in SMA conditions serve to ameliorate motor neuron degeneration; the degeneration of motor neurons cultured from Δ7 SMA mice and control mice by TUNEL staining was monitored. […]

SMA iPSC motor neurons [4] = assay: iPSC motor neuron degeneration measured by TUNEL; type: cell-based, human; conditions: 300 nM
Method: as §1, §2

SMILES	iPSC motor neuron degeneration by ChAT staining (SMA iPSC motor neurons [1])	Degeneration of motor neurons (TuJ1 and Isl1-positive, % of DAPI positive cells) in human SMA iPSC culture ([2]; 10 μM)	Motor neuron degeneration in non-integrating iPSC SMA model [3]	Toxic Effect on SMA motor neuron (SMA motor neuron; 50 nM)	Toxic Effect on SMA motor neuron (SMA motor neuron; 150 nM)	Toxic Effect on SMA motor neuron (SMA motor neuron; 300 nM)	Toxic Effect on SMA motor neuron (SMA motor neuron; 450 nM)	Toxic Effect on SMA motor neuron (SMA motor neuron; 600 nM)	Toxic Effect on WT motor neuron (WT motor neuron; 50 nM)	Toxic Effect on WT motor neuron (WT motor neuron; 150 nM)	Toxic Effect on WT motor neuron (WT motor neuron; 300 nM)	Toxic Effect on WT motor neuron (WT motor neuron; 450 nM)	Toxic Effect on WT motor neuron (WT motor neuron; 600 nM)	Degeneration of motor neurons (TuJ1 and Isl1-positive, % of DAPI positive cells) in human SMA iPSC culture ([2]; 300 nM)	TUNEL+ degenerating motor neurons from SMA mice (SMA motor neurons)	iPSC motor neuron degeneration by TUNEL (SMA iPSC motor neurons [4])
CCCC[C@@H](C=O)NC(=O)[C@H](CC(C)C)NC(=O)OCc1ccccc1 [Calpeptin]	reduces iPSC motor neuron degeneration	alleviated the degeneration of Isl1-positive motor neurons; also recorded: significantly reduces the degeneration of motor neurons	significantly reduces motor neuron degeneration	–	–	–	–	–	–	–	–	–	–	–	–	–
CC(C)c1cnc(NC(=O)Cc2ccccc2)s1 [BML259, N-(5-isopropyl-thiazol-2-yl)phenylacetamide]	–	–	–	no	no	no	strong	very strong	no	no	no	weak	strong	alleviated the degeneration of Isl1-positive motor neurons; also recorded: significantly reduces the degeneration of motor neurons	significantly reduced the degeneration of SMA motor neurons	reduces iPSC motor neuron degeneration
